# Values of other authors, collected in US20050042268A1, “Pharmaceutical composition and method for transdermal drug delivery” (priority 2003, published 2005).
smiles,measurement,value
C[C@]12CC[C@H]3[C@@H](CCC4=CC(=O)CC[C@@]43C)[C@@H]1CC[C@@H]2O [testosterone],free testosterone as part of the total concentration in the blood,4 to 8%
same,testosterone in the blood bound to protein,Over 90%
